Test results as given in ChEMBL document CHEMBL1150114, “Isolation and structure of a 20,21-epoxybufenolide series from "Ch'an Su"” (J Nat Prod, 2002).
Values after ≈ are worked out from the molar mass of the structure shown.

What was measured:
[1] = test system: KB; experiment: Cytotoxicity against human KB cells after 72 hrs by MTT assay; format: functional, cell-based
[2] = test system: MH60; experiment: Cytotoxicity against mouse MH60 cells after 72 hrs by MTT assay; format: functional, cell-based; conditions: MH60, 72 h

Work on C[C@]12CCC(=O)C[C@H]1CC[C@@H]1[C@@H]2CC[C@]2(C)[C@@H]([C@@]34C=CC(=O)O[C@@H]3O4)C[C@H]3O[C@]132 yielded an IC50 [1] of 18.5 µg/mL (≈ 46.4 µM) and an IC50 [2] of 8.54 µg/mL (≈ 21.4 µM).
For C[C@]12CC[C@H](OC=O)C[C@H]1CC[C@@H]1[C@@H]2CC[C@]2(C)[C@@H]([C@@]34C=CC(=O)O[C@@H]3O4)C[C@H]3O[C@]132, the IC50 [1] was greater than 25 µg/mL and the IC50 [2] was greater than 25 µg/mL.
For C[C@]12CC[C@H](O)C[C@H]1CC[C@@H]1[C@@H]2CC[C@]2(C)[C@@H](c3ccc(=O)oc3)C[C@H]3O[C@]132 [BUFOGENIN], the IC50 [1] was 1.34 µg/mL (≈ 3.48 µM) and the IC50 [2] was 10.5 µg/mL (≈ 27.3 µM).
In the case of C[C@]12CC[C@H](O)C[C@H]1CC[C@@H]1[C@@H]2CC[C@]2(C)[C@@H]([C@@]34C=CC(=O)O[C@@H]3O4)C[C@H]3O[C@]132, the IC50 [1] is reported as 10.9 µg/mL (≈ 27.2 µM) and the IC50 [2] is reported as 1.82 µg/mL (≈ 4.54 µM).
In the case of C[C@]12CC[C@H](O)C[C@H]1CC[C@@H]1[C@@H]2CC[C@]2(C)[C@@H]([C@]34C=CC(=O)O[C@H]3O4)C[C@H]3O[C@]132, the IC50 [1] is reported as 8.09 µg/mL (≈ 20.2 µM) and the IC50 [2] is reported as 1.8 µg/mL (≈ 4.49 µM).
C[C@]12CC[C@H](OC=O)C[C@H]1CC[C@@H]1[C@@H]2CC[C@]2(C)[C@@H]([C@]34C=CC(=O)O[C@H]3O4)C[C@H]3O[C@]132 showed an IC50 [1] greater than 25 µg/mL and an IC50 [2] greater than 25 µg/mL.
